Laboratory results reported in patent US20040038883A1, “Peptide inhibitors of Akt and uses thereof” (priority 2002, published 2004).
No end group written: not given here.

How the values were obtained:
Akt1 = biological target: T1, Akt1 (Homo sapiens, UniProt P31749); assay: in vitro Akt1 kinase assay with biotinylated Bad-derived peptide substrate; type: biochemical; conditions: FIG. 3
T1 construct: made in house; host or cells: baculovirus / insect cells

SGK = assay: kinase selectivity assay, SGK; type: biochemical
From the text: Enzymes: Akt1 was expressed and purified using a baculoviral system. PKA was purchased from Panvera. CDC2, […] and PKC gamma were purchased from Calbiochem, and SGK and Src were purchased from Upstate Biotechnology (Charlottesvilee, Va.).
Substrates: All substrates were custom synthesized by Genemed Synthesis, Inc. (San Francisco, Calif.) except the Src substrate, which was purchased from Promega (cat#V6480). The substrates had the general structure of Biotin-Ahx-peptide. The Akt assay used […]. The PKA assay used kemptide LRRASLG. The CDC2 assay used PKTPKKAKKL. The SGK assay used RPRAATF. The PKC delta and gamma used neurogranin ERMRPRKRQGSVRRRV. Phosphotidylserine and dioleyl-sn-glycerol were purchased from Avanti Polar Lipids (Alabaster, Ala.). Strepavidin Flash Plates were purchased from Perkin Elmer Life Sciences (Boston, Mass.).
Turning to the kinase selectivity assays, all the enzymes other than Akt were tested in 25 mM Hepes buffer pH 7.4, 10 mM MgCl2, 0.1 mM Na3VO4, 0.5 mM DTT and 0.075 mg/ml Triton X-100. […] Reactions were transferred to Flash Plates, vortexed and incubated at room temperature for 10 min, then washed 3 times with phosphate buffered saline with 0.05% Tween 20 and counted on a TopCount Packard Instruments gamma counter (Packard Instruments, Boston, Mass.). IC50s were calculated using the Assay Explorer software, sigmoidal curve fit by MDL.

mouse Akt1 = mouse Akt1 (Mus musculus, UniProt P31750); conditions: mouse Akt1, J. Biol. Chem. 275:36108-36115 (2000); cited from earlier work
Akt = assay: Ki
Description: Table printed on a drawing sheet, FIG.8
The patent's description of the figure: FIG. 8 represents the minimal length requirement for the peptide inhibitors. Different lengths of peptide inhibitor 2 were synthesized. For some of them, an acetyl group was added to the amino terminal end to increase the stability for cellular assays. These peptides were tested in the Akt assay described herein.
First copying reader's note: Ki values are for length variants of peptide inhibitor 2 tested in the Akt assay; the unit (μM) stands in the cells.
Where the first naming reader finds the target: description_of_the_figure: These peptides were tested in the Akt assay described herein.

[1] = system: Akt1-FL (full-length Akt1); assay: IC50 (Akt1-FL*)
Description: Table printed on a drawing sheet, FIG.3B
Head of the field: IC50 (Akt1-FL*)
Footnotes: *FL: FULL-LENGTH
The patent's description of the figure: FIG. 3: FIG. 3A illustrates Akt1 inhibition by the five Akt1 peptide inhibitors. FIG. 3B illustrates the IC50 of the five peptide inhibitors.
First copying reader's note: For peptide 5 the sheet prints a percent value at 128μM in place of an IC50.
Where the first naming reader finds the target: head: IC50 (Akt1-FL*)

T1 sequence (P31749 whole entry): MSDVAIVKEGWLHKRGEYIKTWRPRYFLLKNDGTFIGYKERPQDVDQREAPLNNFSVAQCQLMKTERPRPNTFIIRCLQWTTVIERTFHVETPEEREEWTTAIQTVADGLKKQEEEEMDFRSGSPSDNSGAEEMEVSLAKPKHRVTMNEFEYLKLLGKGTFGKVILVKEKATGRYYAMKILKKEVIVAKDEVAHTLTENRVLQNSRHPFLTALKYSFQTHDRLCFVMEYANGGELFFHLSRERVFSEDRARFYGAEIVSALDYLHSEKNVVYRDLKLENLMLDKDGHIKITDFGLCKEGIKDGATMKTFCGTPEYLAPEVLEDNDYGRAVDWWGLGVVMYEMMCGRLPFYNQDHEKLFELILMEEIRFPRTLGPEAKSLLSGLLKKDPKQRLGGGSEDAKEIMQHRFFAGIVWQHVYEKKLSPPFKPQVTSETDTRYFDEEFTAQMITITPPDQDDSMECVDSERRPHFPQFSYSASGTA
Chain of mouse Akt1 (P31750 whole entry): as the sequence (P31749 whole entry) above, with S2N, A50S, T100A, K112R, E117T, K389T, G410N, H415D counted along it

Compound | Ki (Akt) | IC50 [1] | further results
5: peptide 2 with threonine at position 15 mutated to Asp (VELDPEFEPRARERDYAFGH; Variant of the wildtype Akt Sequence) [Peptide 5] | – | – | relative potency of Akt1 inhibition (in words) (Akt1): least potent inhibitor
CC(C)C[C@H](NC(=O)[C@H](CCC(=O)O)NC(=O)[C@@H](N)C(C)C)C(=O)N[C@@H](CC(=O)O)C(=O)N1CCC[C@H]1C(=O)N[C@@H](CCC(=O)O)C(=O)N[C@@H](Cc1ccccc1)C(=O)N[C@@H](CCC(=O)O)C(=O)N1CCC[C@H]1C(=O)N[C@@H](CCCNC(=N)N)C(=O)N[C@@H](C)C(=O)N[C@@H](CCCNC(=N)N)C(=O)N[C@@H](CCC(=O)O)C(=O)N[C@@H](CCCNC(=N)N)C(=O)N[C@H](C(=O)N[C@@H](Cc1ccc(O)cc1)C(=O)N[C@@H](CO)C(=O)N[C@@H](Cc1ccccc1)C(=O)NCC(=O)N[C@@H](Cc1c[nH]cn1)C(=O)O)[C@@H](C)O [Peptide 1] | – | – | relative potency of Akt1 inhibition (in words) (Akt1): most potent inhibitor against Akt1; inhibition on SGK (in words) (SGK): inhibition was observed; Ki (SGK; highest concentration tested 50 μM, 10 μM ATP): 1000 nM
ARKRERTYSFGHHA [AKTide-2T] | – | – | Ki (mouse Akt1): 12000 nM
Ac-DPEFEPRARERTYAFGH | 260 nM | – | –
Ac-ERTYAFGH | > 100000 nM | – | –
Ac-FEPRARERTYAFGH | 1440 nM | – | –
Ac-RARERTYAFGH | 15900 nM | – | –
FEPRARERTYAFGH | 1970 nM | – | –
VELDPEFEPRARER A Y A F GH [4:] | – | 210 nM | –
VELDPEFEPRARER T Y A F GH [2:] | – | 280 nM | –
VELDPEFEPRARER T Y D F GH [3:] | – | 10600 nM | –
VELDPEFEPRARER T Y S F GH [1:] | – | 490 nM | –
